Assay results taken from patent US6737383B1, “Herbicidal oxadiazolidines” (priority 1999, dated 2004).

Assays:
[1] = tested on: corn; assay: Test B pre/postemergence corn; type: in vivo, Zea mays
In short: (§1)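 Test chemicals in a non-phytotoxic solvent mixture with surfactant were sprayed preemergence onto planted seeds and postemergence onto plants 2 to 18 cm tall (1- to 4-leaf stage). After twelve to sixteen days in a greenhouse, injury was visually rated against untreated controls from 0 (no effect) to 10 (complete control).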

[2] = tested on: smallflower flatsedge; assay: Test B flood test smallflower flatsedge; type: in vivo, Cyperus difformis
In short: (§2)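 Read-out is a visual response score from 0 (no effect) to 10 (complete control), assigned by comparison with untreated controls. Treatment was applied at the 2-leaf stage, and plants stayed in the greenhouse for twelve to sixteen days before scoring.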

[3] = tested on: sugar beet; assay: Test B pre/postemergence sugar beet; type: in vivo, Beta vulgaris
In short: as §1

[4] = tested on: wheat; assay: Test B pre/postemergence wheat; type: in vivo, Triticum aestivum
In short: as §1

[5] = tested on: purple nutsedge; assay: Test B pre/postemergence purple nutsedge; type: in vivo, Cyperus rotundus
In short: as §1

[6] = tested on: velvetleaf; assay: Test B pre/postemergence velvetleaf; type: in vivo, Abutilon theophrasti
In short: as §1

[7] = tested on: rice; assay: Test B flood test rice; type: in vivo, Oryza sativa
In short: as §2

[8] = tested on: wild oat; assay: Test B pre/postemergence wild oat; type: in vivo, Avena fatua
In short: as §1

[9] = tested on: bedstraw; assay: Test B pre/postemergence bedstraw; type: in vivo, Galium aparine
In short: as §1

[10] = tested on: crabgrass; assay: Test B pre/postemergence crabgrass; type: in vivo, Digitaria sanguinalis
In short: as §1

[11] = tested on: rape; assay: Test B pre/postemergence rape; type: in vivo, Brassica napus
In short: as §1

[12] = tested on: cocklebur; assay: Test B pre/postemergence cocklebur; type: in vivo, Xanthium strumarium
In short: as §1

[13] = tested on: blackgrass; assay: Test B pre/postemergence blackgrass; type: in vivo, Alopecurus myosuroides
In short: as §1

[14] = tested on: bamyardgrass; assay: Test B flood test barnyardgrass; type: in vivo, Echinochloa crus-galli
In short: as §2

[15] = tested on: duck salad; assay: Test B flood test duck salad; type: in vivo, Heteranthera limosa
In short: as §2

[16] = tested on: surinam grass; assay: Test B pre/postemergence surinam grass; type: in vivo, Brachiaria decumbens
In short: as §1

[17] = tested on: soybean; assay: Test B pre/postemergence soybean; type: in vivo, Glycine max
In short: as §1

[18] = Preemergence, Rate 31 g/ha, visual rating, scale 0 to 10 (0 no effect, 10 complete control)
[19] = Preemergence, Rate 62 g/ha, scale of 0 to 10 where 0 is no effect and 10 is complete control
[20] = Rate 16 g/ha, Postemergence, scale 0 to 10, 0 no effect, 10 complete control
[21] = Rate 16 g/ha, Preemergence, scale 0 to 10, 0 no effect, 10 complete control
[22] = Rate 31 g/ha, Postemergence, scale 0 to 10
[23] = Rate 62 g/ha, Postemergence, scale 0 to 10 (0 no effect, 10 complete control)
[24] = Rate 125 g/ha, Postemergence, scale of 0 to 10 where 0 is no effect and 10 is complete control
[25] = Rate 125 g/ha, Preemergence, scale of 0 to 10 where 0 is no effect and 10 is complete control
[26] = Rate 16 g/ha, head printed Pre-emergence (flood test species), scale 0 to 10, 0 no effect, 10 complete control
[27] = Rate 31 g/ha, Pre-emergence section (flood test species), scale 0 to 10
[28] = Rate 62 g/ha, headed Pre-emergence (flood test species), scale 0 to 10 (0 no effect, 10 complete control)
[29] = Rate 125 g/ha, Pre-emergence, flood test species, scale 0 to 10 where 0 is no effect and 10 is complete control

CC(C)N(C(=O)n1oc(=O)n(CCCF)c1=O)c1ccc(F)cc1 [Compound 287]
Corn plant response rating [1, 18]: 0
Corn plant response rating [1, 19]: 0
Corn plant response rating [1, 20]: 0
Corn plant response rating [1, 21]: 0
Corn plant response rating [1, 22]: 0
Corn plant response rating [1, 23]: 0
Corn plant response rating [1, 24]: 0
Corn plant response rating [1, 25]: 0
S. Flatsedge plant response rating [2, 26]: 0
S. Flatsedge plant response rating [2, 27]: 0
S. Flatsedge plant response rating [2, 28]: 0
S. Flatsedge plant response rating [2, 29]: 0
Sugarbeets plant response rating [3, 18]: 0
Sugarbeets plant response rating [3, 19]: 3
Sugarbeets plant response rating [3, 20]: 0
Sugarbeets plant response rating [3, 21]: 0
Sugarbeets plant response rating [3, 23]: 0
Sugarbeets plant response rating [3, 24]: 0
Sugarbeets plant response rating [3, 25]: 6
Wheat plant response rating [4, 18]: 0
Wheat plant response rating [4, 19]: 0
Wheat plant response rating [4, 20]: 0
Wheat plant response rating [4, 21]: 0
Wheat plant response rating [4, 23]: 5
Wheat plant response rating [4, 24]: 5
Wheat plant response rating [4, 25]: 7
Nutsedge plant response rating [5, 18]: 0
Nutsedge plant response rating [5, 19]: 0
Nutsedge plant response rating [5, 20]: 0
Nutsedge plant response rating [5, 21]: 0
Nutsedge plant response rating [5, 22]: 5
Nutsedge plant response rating [5, 23]: 6
Nutsedge plant response rating [5, 24]: 6
Nutsedge plant response rating [5, 25]: 6
Velvetleaf plant response rating [6, 18]: 3
Velvetleaf plant response rating [6, 19]: 6
Velvetleaf plant response rating [6, 20]: 0
Velvetleaf plant response rating [6, 21]: 1
Velvetleaf plant response rating [6, 23]: 0
Velvetleaf plant response rating [6, 24]: 4
Velvetleaf plant response rating [6, 25]: 7
Rice plant response rating [7, 26]: 0
Rice plant response rating [7, 27]: 0
Rice plant response rating [7, 28]: 0
Rice plant response rating [7, 29]: 0
Wild oats plant response rating [8, 18]: 1
Wild oats plant response rating [8, 19]: 8
Wild oats plant response rating [8, 20]: 0
Wild oats plant response rating [8, 21]: 0
Wild oats plant response rating [8, 23]: 2
Wild oats plant response rating [8, 24]: 3
Bedstraw plant response rating [9, 18]: 4
Bedstraw plant response rating [9, 19]: 9
Bedstraw plant response rating [9, 20]: 0
Bedstraw plant response rating [9, 21]: 0
Bedstraw plant response rating [9, 22]: 0
Bedstraw plant response rating [9, 23]: 4
Bedstraw plant response rating [9, 24]: 8
Bedstraw plant response rating [9, 25]: 10
Crabgrass plant response rating [10, 18]: 2
Crabgrass plant response rating [10, 19]: 8
Crabgrass plant response rating [10, 20]: 0
Crabgrass plant response rating [10, 21]: 0
Crabgrass plant response rating [10, 22]: 2
Crabgrass plant response rating [10, 23]: 2
Crabgrass plant response rating [10, 24]: 5
Crabgrass plant response rating [10, 25]: 9
Rape plant response rating [11, 18]: 4
Rape plant response rating [11, 19]: 4
Rape plant response rating [11, 20]: 0
Rape plant response rating [11, 21]: 0
Rape plant response rating [11, 22]: 0
Rape plant response rating [11, 23]: 0
Rape plant response rating [11, 24]: 0
Rape plant response rating [11, 25]: 8
Cocklebur plant response rating [12, 18]: 0
Cocklebur plant response rating [12, 19]: 0
Cocklebur plant response rating [12, 20]: 0
Cocklebur plant response rating [12, 21]: 0
Cocklebur plant response rating [12, 22]: 0
Cocklebur plant response rating [12, 23]: 0
Cocklebur plant response rating [12, 24]: 1
Cocklebur plant response rating [12, 25]: 0
Blackgrass plant response rating [13, 18]: 7
Blackgrass plant response rating [13, 19]: 10
Blackgrass plant response rating [13, 20]: 0
Blackgrass plant response rating [13, 21]: 0
Blackgrass plant response rating [13, 22]: 8
Blackgrass plant response rating [13, 23]: 8
Blackgrass plant response rating [13, 24]: 9
Blackgrass plant response rating [13, 25]: 10
Barnyardgrass plant response rating [14, 26]: 0
Barnyardgrass plant response rating [14, 27]: 0
Barnyardgrass plant response rating [14, 28]: 0
Barnyardgrass plant response rating [14, 29]: 0
Ducksalad plant response rating [15, 26]: 0
Ducksalad plant response rating [15, 27]: 0
Ducksalad plant response rating [15, 28]: 0
Ducksalad plant response rating [15, 29]: 0
B. signalgrass plant response rating [16, 18]: 3
B. signalgrass plant response rating [16, 19]: 6
B. signalgrass plant response rating [16, 20]: 0
B. signalgrass plant response rating [16, 21]: 0
B. signalgrass plant response rating [16, 22]: 0
B. signalgrass plant response rating [16, 23]: 0
B. signalgrass plant response rating [16, 24]: 2
B. signalgrass plant response rating [16, 25]: 10
Soybean plant response rating [17, 18]: 0
Soybean plant response rating [17, 19]: 0
Soybean plant response rating [17, 20]: 1
Soybean plant response rating [17, 21]: 0
Soybean plant response rating [17, 23]: 1
Soybean plant response rating [17, 24]: 3
Soybean plant response rating [17, 25]: 6
